Results reported in ChEMBL document CHEMBL5705896 (ACS Chem Biol, 2013).

Assays:
[1] = target: Serine/threonine-protein kinase pim-1 (Homo sapiens) (UniProt P11309); assay: Inhibition of full length human N-terminal his-tagged PIM1 (1 to 313 end residues) expressed in baculovirus expression system using S6K2 peptide as substrate at 10 uM by mobility shift assay relative to control
[2] = target: Histone-lysine N-methyltransferase SETDB1 (Homo sapiens, UniProt Q15047); assay: Inhibition of SETDB1 (unknown origin) using [3H-SAM] as substrate incubated for 1 hr by scintillation proximity assay
[3] = target: Tyrosine-protein kinase SYK (Homo sapiens) (UniProt P43405); assay: Inhibition of full length human N-terminal GST tagged SYK (1 to […] end residues) expressed in baculovirus expression system using Blk/lyntide as substrate at 10 uM by mobility shift assay relative to control
[4] = target: Mitogen-activated protein kinase 14 (Homo sapiens) (UniProt Q16539); assay: Inhibition of truncated human N-terminal GST-tagged p38 alpha (9 to 352 residues) expressed in Escherichia coli expression system using modified Erktide as substrate at 10 uM by mobility shift assay relative to control
[5] = target: Casein kinase I isoform epsilon (Homo sapiens) (UniProt P49674); assay: Inhibition of human catalytic domain N-terminal GST tagged CK1epsilon (1 to 348 residues) expressed in baculovirus expression system using ck-tide as substrate at 10 uM by mobility shift assay relative to control
[6] = Inhibition of full length human N-terminal his tagged ABL (2 to 1130 end residues) expressed in baculovirus expression system using ABLtide as substrate at 10 uM by mobility shift assay relative to control; conditions: condition weaver syndrome
[7] = target: Mitogen-activated protein kinase kinase kinase kinase 4 (Homo sapiens) (UniProt O95819); assay: Inhibition of human catalytic domain N-terminal GST tagged HGK (1 to 328 residues) expressed in baculovirus expression system using moesin-derived peptide as substrate at 10 uM by mobility shift assay relative to control
[8] = target: D(3) dopamine receptor (Homo sapiens) (UniProt P35462); assay: Inhibition of dopamine D3 receptor (unknown origin) at 10 uM by radioligand binding assay relative to control
[9] = target: Alpha-2C adrenergic receptor (Homo sapiens) (UniProt P18825); assay: Inhibition of Alpha2C receptor (unknown origin) at 10 uM by radioligand binding assay relative to control
[10] = target: DNA (cytosine-5)-methyltransferase 1 (Homo sapiens, UniProt P26358); assay: Inhibition of DNMT1 (unknown origin) using hemimethylated dsDNA as substrate incubated for 1 hr by scintillation proximity assay
[11] = target: 5-hydroxytryptamine receptor 2C (Homo sapiens) (UniProt P28335); assay: Inhibition of 5-HT2C receptor (unknown origin) at 10 uM by radioligand binding assay relative to control
[12] = Toxicity in Swiss albino mouse assessed as drug tolerance at 15 to 150 mg/kg administered as single ip dose measured upto 24 hrs; format: organism-based; conditions: in vivo, dose 15-150 mg/kg
[13] = target: Protein kinase C alpha type (Homo sapiens) (UniProt P17252); assay: Inhibition of full length human N-terminal GST tagged PKC alpha (1 to 672 end residues) expressed in baculovirus expression system using PKC as peptide at 10 uM by mobility shift assay relative to control
[14] = target: RAC-alpha serine/threonine-protein kinase (Homo sapiens) (UniProt P31749); assay: Inhibition of human catalytic domain N-terminal GST tagged AKT1 (104 to 480 end residues) expressed in baculovirus expression system using crosstide as substrate at 10 uM by mobility shift assay relative to control
[15] = target: Fibroblast growth factor receptor 1 (Homo sapiens) (UniProt P11362); assay: Inhibition of human cytoplasmic domain N-terminal GST tagged FGFR1 (398 to 822 end residues) expressed in baculovirus expression system using CSKtide as substrate at 10 uM by mobility shift assay relative to control
[16] = target: Histone-lysine N-methyltransferase EZH2 (Homo sapiens, UniProt Q15910); assay: Inhibition of EZH2 methyltransferase activity (unknown origin) in PRC2 complex using 3H-SAM as substrate by Scintillation proximity assay
[17] = target: AMP-activated protein kinase (AMPK) alpha-1/beta-1/gamma-1 (Homo sapiens) (UniProt P54619+Q9Y478+Q13131); assay: Inhibition of full length human N-terminal GST tagged AMPK alpha1(1 to 550 end residues)/beta1 (1 to 270 end residues)/gamma1 (1 to 331 end residues) expressed in baculovirus expression system using SAMS peptide as substrate at 10 uM by mobility shift assay relative to control
[18] = target: Alpha-2B adrenergic receptor (Homo sapiens) (UniProt P18089); assay: Inhibition of Alpha2B receptor (unknown origin) at 10 uM by radioligand binding assay relative to control
[19] = target: Translocator protein (Homo sapiens) (UniProt P30536); assay: Inhibition of PBR (unknown origin) at 10 uM by radioligand binding assay relative to control
[20] = target: Receptor-type tyrosine-protein kinase FLT3 (Homo sapiens) (UniProt P36888); assay: Inhibition of human cytoplasmic domain N-terminal GST tagged FLT3 (564 to 993 end residues) expressed in baculovirus expression system using Srctide as substrate at 10 uM by mobility shift assay relative to control
[21] = target: Mitogen-activated protein kinase 9 (Homo sapiens) (UniProt P45984); assay: Inhibition of human catalytic domain N-terminal GST tagged JNK2 (1 to 364 residues) expressed in Escherichia coli expression system using modified Erktide as substrate at 10 uM by mobility shift assay relative to control
[22] = target: 3-phosphoinositide-dependent protein kinase 1 (Homo sapiens) (UniProt O15530); assay: Inhibition of full length human N-terminal GST tagged PDK1 (1 to 556 end residues) expressed in baculovirus expression system using T308tide as substrate at 10 uM by mobility shift assay relative to control
[23] = target: Histone-lysine N-methyltransferase, H3 lysine-79 specific (Homo sapiens, UniProt Q8TEK3); assay: Inhibition of DOT1L (unknown origin) using [3H-SAM] as substrate incubated for 1 hr by scintillation proximity assay
[24] = target: Serine/threonine-protein kinase Chk1 (Homo sapiens) (UniProt O14757); assay: Inhibition of full length human N-terminal GST tagged CHK1 (1 to 476 end residues) expressed in baculovirus expression system using chk-tide as substrate at 10 uM by mobility shift assay relative to control
[25] = target: Serine/threonine-protein kinase Nek2 (Homo sapiens) (UniProt P51955); assay: Inhibition of full length human N-terminal his-tagged NEK2 (1 to 445 end residues) expressed in baculovirus expression system using CDK7 peptide as substrate at 10 uM by mobility shift assay relative to control
[26] = target: 5-hydroxytryptamine receptor 2A (Homo sapiens) (UniProt P28223); assay: Inhibition of 5-HT2A receptor (unknown origin) at 10 uM by radioligand binding assay relative to control
[27] = target: Sodium-dependent dopamine transporter (Homo sapiens) (UniProt Q01959); assay: Inhibition of DAT (unknown origin) at 10 uM by radioligand binding assay relative to control

SMILES: CCCc1cc(C)[nH]c(=O)c1CNC(=O)c1cc(-c2ccc(N3CCN(C(C)C)CC3)nc2)cc2c1cnn2C(C)C
- inhibition [1]: 1%
- IC50 [2]: > 100 µM
- inhibition [3]: -6%
- inhibition [4]: 0%
- inhibition [5]: -4%
- inhibition at 10 µM [6]: -4%
- inhibition [7]: -2%
- inhibition [8]: 28%
- inhibition [9]: 47%
- IC50 [10]: > 100 µM
- inhibition [11]: 22%
- Activity [12]: Non-Toxic
- inhibition [13]: -4%
- inhibition [14]: -6%
- inhibition [15]: -9%
- IC50 [16]: < 0.01 µM
- inhibition [17]: -3%
- inhibition [18]: 48%
- inhibition [19]: 31%
- inhibition [20]: 16%
- inhibition [21]: 5%
- inhibition [22]: -6%
- IC50 [23]: > 100 µM
- inhibition [24]: -2%
- inhibition [25]: -4%
- inhibition [26]: 39%
- inhibition [27]: 36%
